{"source": "PubChem BioAssay AID248", "about": "(DTP/NCI, 2004)", "tested_on": "L1210 leukemia ip in BDF1 mice, survival T/C", "assay": "NCI In Vivo Anticancer Drug Screen. Data for tumor model L1210 Leukemia (intraperitoneal) in B6D2F1 (BDF1) mice", "details": "endpoint: mean survival time, higher = longer survival", "method_in_brief": "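Transplanted-tumor mice were given test agent; controls received vehicle only. Survival readings from the two groups were divided (treated over control).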", "key": {"[1]": {"details": "dose: 100.0 mg/kg/injection, schedule: Q01DX009 (ip), vehicle: saline"}, "[2]": {"details": "dose: 200.0 mg/kg/injection, schedule: Q01DX009 (ip), vehicle: saline"}, "[3]": {"details": "dose: 400.0 mg/kg/injection, schedule: Q01DX009 (ip), vehicle: saline"}, "[4]": {"details": "dose: 100.0 mg/kg/injection, schedule: Q04DX002 (ip), vehicle: Klucel (hydroxypropylcellulose) (HPC)"}, "[5]": {"details": "dose: 200.0 mg/kg/injection, schedule: Q04DX002 (ip), vehicle: Klucel (hydroxypropylcellulose) (HPC)"}, "[6]": {"details": "dose: 100.0 mg/kg/injection, schedule: Q01DX009 (ip), vehicle: Klucel (hydroxypropylcellulose) (HPC)"}, "[7]": {"details": "dose: 200.0 mg/kg/injection, schedule: Q01DX009 (ip), vehicle: Klucel (hydroxypropylcellulose) (HPC)"}, "[8]": {"details": "dose: 400.0 mg/kg/injection, schedule: Q01DX009 (ip), vehicle: Klucel (hydroxypropylcellulose) (HPC)"}}, "note": "“And” between values parts separate entries of the source, which are not always exact repeats. Identical values can stand only once. Inconclusive results and toxic doses are left out.", "data": [{"smiles": "CC1c2c(ccc3c2CCC=C3)CCC1CC1=CCCc2ccc3ccccc3c21", "note": "(stereo unspecified)", "values": [{"measurement": "T/C", "setting": "[1]", "value": "107 % of control"}, {"measurement": "T/C", "setting": "dose: 100.0 mg/kg/injection, schedule: Q04DX003 (ip), vehicle: Klucel (hydroxypropylcellulose) (HPC)", "value": "103 % of control"}, {"measurement": "T/C", "setting": "[2]", "value": "95 % of control"}, {"measurement": "T/C", "setting": "dose: 200.0 mg/kg/injection, schedule: Q04DX003 (ip), vehicle: Klucel (hydroxypropylcellulose) (HPC)", "value": "90 % of control"}, {"measurement": "T/C", "setting": "[3]", "value": "93 % of control"}, {"measurement": "T/C", "setting": "dose: 400.0 mg/kg/injection, schedule: Q04DX003 (ip), vehicle: Klucel (hydroxypropylcellulose) (HPC)", "value": "95 % of control"}]}, {"smiles": "COc1ccc([N+](=O)[O-])c(C=O)c1", "values": [{"measurement": "T/C", "setting": "[1]", "value": "101 % of control"}, {"measurement": "T/C", "setting": "dose: 100.0 mg/kg/injection, schedule: Q04DX003 (ip), vehicle: saline", "value": "97 % of control"}, {"measurement": "T/C", "setting": "[2]", "value": "98 % of control"}, {"measurement": "T/C", "setting": "dose: 200.0 mg/kg/injection, schedule: Q04DX003 (ip), vehicle: saline", "value": "100 % of control"}, {"measurement": "T/C", "setting": "[3]", "value": "101 % of control"}, {"measurement": "T/C", "setting": "dose: 400.0 mg/kg/injection, schedule: Q04DX003 (ip), vehicle: saline", "value": "103 % of control"}]}, {"smiles": "CCCC(C)NCCOC(=O)c1ccc(N)cc1", "note": "(stereo unspecified)", "values": [{"measurement": "T/C", "setting": "dose: 75.0 mg/kg/injection, schedule: Q01DX001 (ip), vehicle: saline", "value": "95 % of control"}]}, {"smiles": "O/N=C1\\CCc2ccccc21", "values": [{"measurement": "T/C", "setting": "dose: 50.0 mg/kg/injection, schedule: Q04DX002 (ip), vehicle: Klucel (hydroxypropylcellulose) (HPC)", "value": "100 % of control"}, {"measurement": "T/C", "setting": "[4]", "value": "92 % of control"}, {"measurement": "T/C", "setting": "[5]", "value": "96 % of control"}]}, {"smiles": "O=C(Nc1ccccc1O)c1ccc([N+](=O)[O-])cc1", "values": [{"measurement": "T/C", "setting": "[6]", "value": "100 % of control"}, {"measurement": "T/C", "setting": "[7]", "value": "91 % of control"}, {"measurement": "T/C", "setting": "[8]", "value": "93 % of control"}]}, {"smiles": "CCCCNC(=O)N(CC)C(=NCC)c1ccc(NC(=O)c2ccc(C(=O)Nc3ccc(C(=NCC)N(CC)C(=O)NCCCC)cc3)cc2)cc1", "values": [{"measurement": "T/C", "setting": "dose: 3.12 mg/kg/injection, schedule: Q01DX015 (ip), vehicle: methylcellulose (MC)", "value": "109 % of control"}, {"measurement": "T/C", "setting": "dose: 6.25 mg/kg/injection, schedule: Q01DX015 (ip), vehicle: methylcellulose (MC)", "value": "121 % of control"}, {"measurement": "T/C", "setting": "dose: 12.5 mg/kg/injection, schedule: Q01DX015 (ip), vehicle: methylcellulose (MC)", "value": "178 % of control"}, {"measurement": "T/C", "setting": "dose: 25.0 mg/kg/injection, schedule: Q01DX015 (ip), vehicle: methylcellulose (MC)", "value": "120 % of control"}]}, {"smiles": "CCOC1=C(Br)C=CN(S(=O)(=O)c2ccc(C)cc2)c2ccccc21", "values": [{"measurement": "T/C", "setting": "[1]", "value": "97 % of control"}, {"measurement": "T/C", "setting": "[2]", "value": "94 % of control"}, {"measurement": "T/C", "setting": "[3]", "value": "93 % of control"}]}, {"smiles": "Cc1cc2ccccc2c2cc3ccccc3cc12", "values": [{"measurement": "T/C", "setting": "[6]", "value": "104 % of control"}, {"measurement": "T/C", "setting": "dose: 100.0 mg/kg/injection, schedule: Q04DX003 (ip), vehicle: other", "value": "111 % of control"}, {"measurement": "T/C", "setting": "[7]", "value": "109 % of control"}, {"measurement": "T/C", "setting": "dose: 200.0 mg/kg/injection, schedule: Q04DX003 (ip), vehicle: other", "value": "106 % of control"}, {"measurement": "T/C", "setting": "[8]", "value": "107 % of control"}, {"measurement": "T/C", "setting": "dose: 400.0 mg/kg/injection, schedule: Q04DX003 (ip), vehicle: other", "value": "111 % of control"}]}, {"smiles": "Cc1ccccc1N=Nc1c(O)n(-c2ccc(Cl)cc2)c(=S)n(-c2ccccc2)c1=O", "values": [{"measurement": "T/C", "setting": "dose: 75.0 mg/kg/injection, schedule: Q04DX003 (ip), vehicle: Klucel (hydroxypropylcellulose) (HPC)", "value": "100 % of control"}, {"measurement": "T/C", "setting": "dose: 150.0 mg/kg/injection, schedule: Q04DX003 (ip), vehicle: Klucel (hydroxypropylcellulose) (HPC)", "value": "96 % of control"}, {"measurement": "T/C", "setting": "dose: 300.0 mg/kg/injection, schedule: Q04DX003 (ip), vehicle: Klucel (hydroxypropylcellulose) (HPC)", "value": "107 % of control"}]}, {"smiles": "C=CCn1c(SCc2ccccc2)nccc1=O", "values": [{"measurement": "T/C", "setting": "[4]", "value": "111 % of control"}, {"measurement": "T/C", "setting": "[5]", "value": "122 % of control"}, {"measurement": "T/C", "setting": "dose: 400.0 mg/kg/injection, schedule: Q04DX002 (ip), vehicle: Klucel (hydroxypropylcellulose) (HPC)", "value": "108 % of control"}]}, {"smiles": "COc1nc(=O)n(C2OC(CO)C(O)C2O)cc1F", "note": "(stereo unspecified)", "values": [{"measurement": "T/C", "setting": "dose: 50.0 mg/kg/injection, schedule: Q01DX001 (ip), vehicle: saline", "value": "95 % of control"}, {"measurement": "T/C", "setting": "dose: 100.0 mg/kg/injection, schedule: Q01DX001 (ip), vehicle: saline", "value": "90 % of control"}, {"measurement": "T/C", "setting": "dose: 200.0 mg/kg/injection, schedule: Q01DX001 (ip), vehicle: saline", "value": "93 % of control"}, {"measurement": "T/C", "setting": "dose: 400.0 mg/kg/injection, schedule: Q01DX001 (ip), vehicle: saline", "value": "90 % of control"}]}, {"smiles": "Cc1cc(C)c(NS(=O)(=O)c2ccccc2)c(C)n1", "values": [{"measurement": "T/C", "setting": "dose: 100.0 mg/kg/injection, schedule: Q01DX009 (ip), vehicle: saline with Tween-80", "value": "98 % of control and 100 % of control"}, {"measurement": "T/C", "setting": "dose: 100.0 mg/kg/injection, schedule: Q04DX003 (ip), vehicle: saline with Tween-80", "value": "96 % of control"}, {"measurement": "T/C", "setting": "dose: 200.0 mg/kg/injection, schedule: Q01DX009 (ip), vehicle: saline with Tween-80", "value": "91 % of control and 92 % of control"}, {"measurement": "T/C", "setting": "dose: 200.0 mg/kg/injection, schedule: Q04DX003 (ip), vehicle: saline with Tween-80", "value": "100 % of control"}, {"measurement": "T/C", "setting": "dose: 400.0 mg/kg/injection, schedule: Q01DX009 (ip), vehicle: saline with Tween-80", "value": "96 % of control and 97 % of control"}, {"measurement": "T/C", "setting": "dose: 400.0 mg/kg/injection, schedule: Q04DX003 (ip), vehicle: saline with Tween-80", "value": "96 % of control"}]}, {"smiles": "O=N[O-].O=N[O-].O=N[O-].O=N[O-].O=N[O-].O=N[O-].[Ni]", "values": [{"measurement": "T/C", "setting": "dose: 25.0 mg/kg/injection, schedule: Q04DX002 (ip), vehicle: saline", "value": "106 % of control"}, {"measurement": "T/C", "setting": "dose: 50.0 mg/kg/injection, schedule: Q04DX002 (ip), vehicle: saline", "value": "113 % of control"}, {"measurement": "T/C", "setting": "dose: 100.0 mg/kg/injection, schedule: Q04DX002 (ip), vehicle: saline", "value": "106 % of control"}]}]}
